Measured values from US20150159169A1, “Plants Tolerant to HPPD Inhibitor Herbicides” (Bayer CropScience AG, priority 2009, published 2015).
Values joined by “and” are separate entries in the source; they are usually repeats but may differ in a detail not shown here. Equal values may be shown once. Read-outs that look alike come from different tables or passages of the source.

Columns and labels:
[1] = target: T1, Arabidopsis thaliana HPPD "SEQ ID No. 10" (Arabidopsis thaliana, UniProt P93836); test: HPPD activity in presence of HPPD inhibitors (pI50, % inhibition); assay type: biochemical
T1 construct: made in house; host or cells: E. coli K-12 BL21 (pQE30-AtHPPD)
T1 sequence (P93836 with tags, fused parts or gaps): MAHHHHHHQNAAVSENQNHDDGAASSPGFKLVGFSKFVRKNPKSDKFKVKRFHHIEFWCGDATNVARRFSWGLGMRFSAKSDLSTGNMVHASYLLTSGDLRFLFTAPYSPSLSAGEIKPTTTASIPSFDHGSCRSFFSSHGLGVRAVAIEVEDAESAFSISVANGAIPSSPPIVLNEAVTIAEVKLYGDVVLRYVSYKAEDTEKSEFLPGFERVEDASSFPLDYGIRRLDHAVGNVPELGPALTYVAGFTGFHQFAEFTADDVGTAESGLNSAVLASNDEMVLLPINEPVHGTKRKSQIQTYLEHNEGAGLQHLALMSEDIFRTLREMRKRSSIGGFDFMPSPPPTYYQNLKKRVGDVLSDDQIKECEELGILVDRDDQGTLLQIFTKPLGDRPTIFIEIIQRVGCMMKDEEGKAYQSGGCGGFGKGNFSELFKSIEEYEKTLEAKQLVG

[2] = target: Kordia algicida HPPD "SEQ ID No. 5" (Kordia algicida, UniProt A9DQF2); test: biochemical; details: for inhibition at 5 µM: read-out: percentage of inhibition compared to the activity in absence of the inhibitor
[3] = target: T1, Arabidopsis thaliana HPPD "SEQ ID No. 10"; test: HPLC assay of HPPD in vitro kinetic properties; assay type: biochemical; details: substrate HPP varied 10-400 μM; enzyme SEQ ID No. 10
Protocol: (§1) Km, Vmax, and kcat values for different HPPD enzyme preparations and Ki, K1=Kon, and K−1=Koff for different HPPD inhibitors were determined using a HPLC assay for measurements of HPPD activity. […] All assays were started by the addition of HPPD enzyme to the assay mixture and stopped at a series of times between 0 and 240 s by addition of 200 μl of the reaction mixture to reaction assay tubes containing 20 μl 10% perchloric acid. Precipitated protein was pelleted by a 5 minute centrifugation at 10,000 g.
(§2) For Km and Vmax value determinations the initial rates of the HPPD reaction at different substrate concentrations were determined from plots of HGA formed versus time and fitted to the Michaelis-Menten equation for unireactant enzymes using the ID Business Solutions Ltd. (idbs.com) XLfit software suite.

[4] = target: Kordia algicida HPPD "SEQ ID No. 5" (FMP27e) (Kordia algicida, UniProt A9DQF2); test: HPLC assay of HPPD in vitro kinetic properties; assay type: biochemical; details: substrate HPP varied 10-400 μM; enzyme SEQ ID No. 5
Protocol: as §1, §2

[5] = test system: tobacco leaf disks containing SEQ ID No. 11 (Arabidopsis HPPD); test: Leaf disk regeneration on HPPD inhibitor media; assay type: cell-based, Nicotiana tabacum; details: inhibitor 10^−6 M, 6 weeks
Protocol: (§3) At the end of the experiments the level of regeneration was evaluated as followed:
(§4) “−” means that the leaf disks looked the same as leaf disk from wild type tobacco plants on media supplemented with the inhibitor mentioned above.
(§5) “++++” means that the leaf disks looked like the leaf disks from the wild type tobacco plants on media without inhibitor.
(§6) “+”, “++”, and “+++” indicate regenerated leaf disks were heavily (+), medium (++) and less (+++) affected by the presence of the inhibitors.

[6] = test system: tobacco leaf disks containing SEQ ID No. 7 (Kordia algicida HPPD); test: Leaf disk regeneration on HPPD inhibitor media; assay type: cell-based, Nicotiana tabacum; details: inhibitor 10^−6 M, 6 weeks
Protocol: as §3, §4, §5, §6

[7] = test system: T1 tobacco plants carrying FMP27e; test: Glasshouse response to bicyclopyrone, injury classes; assay type: in vivo, Nicotiana tabacum; details: 100 g AI/ha, 7 DAT
Text: (§7) Seeds of wild type tobacco plants and T1 tobacco plants carrying the gene from Kordia algicida FMP27e coding for HPPD were sown on MS media (Murashige and Skoog 1964) supplemented with […] kanamycin. After 4 weeks, rooted green plantlets were transferred to soil and grown for 3 weeks in the glasshouse as described above then sprayed with a mixture containing bicyclopyrone (100 g AI/ha), ammonium sulfate and methyl ester raps oil. The plants were classified in two categories based on the phenotype developed in response to the herbicide seven days after the treatment. […] In this case, only plants containing at least one T-DNA were exposed to the herbicidal treatment.

wild type tobacco plants [8] = test: as above; assay type: in vivo, Nicotiana tabacum; details: 100 g AI/ha, 7 DAT; WT
Text: as §7

[9] = test system: T1 tobacco plants containing Arabidopsis HPPD; test: Glasshouse spray trial, % injury; assay type: in vivo, Nicotiana tabacum; details: 7DAT, 100 gAI/ha spray
Protocol: (§8) T0 Tobacco plants containing either the gene from Arabidopsis coding for HPPD or the gene FMP27e from Kordia algicida coding for FMP27 HPPD, mentioned above (Example 3), were transferred to the glasshouse (28/20° C.), to develop further and produce seeds. Those seeds were harvested and put on soil (ED73 mixed with sand and osmocote Pro) to germinate in the glasshouse (28/20° C.). Three to four weeks later, plantlets were transferred to single pots containing the soil mentioned above. Two weeks later, plants of a size 4-6 cm diameter were sprayed with either • tembotrione at 100 gAI/ha prepared from a WP20 (wettable powder 20%) formulation supplemented with ammonium sulfate and methyl ester raps oil, or • isoxaflutole at 100 gAI/ha prepared from a WP20 formulation supplemented with ammonium sulfate and methyl ester raps oil, or • bicyclopyrone at 100 gAI/ha prepared from a WP20 formulation supplemented with ammonium sulfate and methyl ester raps oil, or • “blind formulation” made from a WP20 formulation without active ingredient (AI) supplemented with ammonium sulfate and methyl ester raps oil, and were then transferred to a growth chamber with adequate light conditions (20000 Lux).
(§9) Table 6: Wild type tobacco plants (A) and T1 populations of tobacco events containing alternatively, the expression cassettes described above having the promoter CaMV 35S, the sequence coding for OTP and the sequence coding for Arabidopsis HPPD (B) or the promoter CaMV35S, the sequence encoding OTP, and the sequence FMP27e coding for the HPPD FMP27 (C). Assessments of herbicidal damage at 7 days after application (DAT) per spray with 100 g AI/ha of tembotrione or isoxaflutole supplemented with ammonium sulfate and methyl ester raps oil. […] Plants belonging to categories (B) and (C) have not been selected for the presence of the respective transgene prior to the herbicide application.

[10] = test system: T1 tobacco plants containing FMP27e (Kordia algicida HPPD FMP27); test: Glasshouse spray trial, % injury; assay type: in vivo, Nicotiana tabacum; details: 7DAT, 100 gAI/ha spray
Protocol: as §8, §9

wild type tobacco plants [11] = test: Glasshouse spray trial, % injury; assay type: in vivo, Nicotiana tabacum; details: 7DAT, 100 gAI/ha spray; individual WT plants; 100% = bleaching as wild type
Protocol: as §8, §9

[12] = test system: transgenic soybean shoots (FMP27 protein); test: Soybean shoot greening on isoxaflutole selection; assay type: cell-based; details: isoxaflutole as selection marker
Text: (§10) Soybean transformation was achieved using methods well known in the art, such as the one described using the Agrobacterium tumefaciens mediated transformation soybean half-seed explants described by Paz et al. (2006, Plant cell Rep. 25:206). Transformants were identified using Isoxaflutole as selection marker. The appearance of green shoots was observed, and documented as an indicator of tolerance to the herbicide isoxaflutole. […] Tolerant green shoots were transferred to rooting media or grafted. Rooted plantlets were transferred to the glasshouse after an acclimation period.

wild-type soybean shoots = test: Soybean shoot greening on isoxaflutole selection; assay type: cell-based; details: same amount of isoxaflutole
Text: as §10

Sequence of Kordia algicida HPPD "SEQ ID No. 5" (A9DQF2 entry or part of it): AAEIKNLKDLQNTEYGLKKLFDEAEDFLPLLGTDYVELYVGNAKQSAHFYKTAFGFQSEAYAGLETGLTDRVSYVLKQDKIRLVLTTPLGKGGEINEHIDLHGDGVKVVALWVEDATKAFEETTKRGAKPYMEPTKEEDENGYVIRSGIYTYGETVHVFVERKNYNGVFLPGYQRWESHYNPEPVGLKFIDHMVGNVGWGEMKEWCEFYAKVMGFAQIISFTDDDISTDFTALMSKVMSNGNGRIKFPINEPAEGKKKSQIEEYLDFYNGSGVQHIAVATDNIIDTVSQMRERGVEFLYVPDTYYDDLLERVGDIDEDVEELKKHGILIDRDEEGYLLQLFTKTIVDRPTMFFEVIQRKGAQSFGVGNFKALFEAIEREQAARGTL
Sequence of Kordia algicida HPPD "SEQ ID No. 5" (FMP27e) (A9DQF2 entry or part of it): as above

**Q.** How did the IC50 [1] turn out when Cc1nn(C)c(O)c1C(=O)c1ccc(C(F)(F)F)cc1S(C)(=O)=O [Pyrasulfotole] was run?
**A.** 3.98 µM

**Q.** What about the inhibition at 5 µM ([1]; read-out: percentage of inhibition compared to the activity in absence of the inhibitor) of the same molecule?
**A.** 69%

**Q.** What about the IC50 [2] of the same molecule?
**A.** 12.6 µM

**Q.** What about the inhibition at 5 µM [2] of the same molecule?
**A.** 43%

**Q.** With O=C(O)C(=O)Cc1ccc(O)cc1 [HPP, para-hydroxyphenylpyruvate] as the molecule, how does the Km [3] read?
**A.** 6.3 µM

**Q.** What about the Vmax [3] of the same molecule?
**A.** 1.2 µM

**Q.** What about the Km [4] of the same molecule?
**A.** 292 µM

**Q.** What about the Vmax [4] of the same molecule?
**A.** 13.6 µM

**Q.** Which IC50 ([2]; read-out: pI50 (converted)) does the source give for COCCOCc1nc(C(F)(F)F)ccc1C(=O)C1=C(O)C2CCC(C2)C1=O (stereo not drawn) [Bicyclopyrone, 4-hydroxy-3-[[2-[(2-methoxyethoxy)methyl]-6-(trifluoromethyl)-3-pyridinyl]carbonyl]bicyclo[3.2.1]oct-3-en-2-one] here?
**A.** 10 µM

**Q.** And the inhibition at 5 µM [2]?
**A.** 38%

**Q.** What about the “level of leaf disk regeneration” value [5] of the same molecule?
**A.** −

**Q.** And the “level of leaf disk regeneration” value [6]?
**A.** ++

**Q.** And the “% of tolerant plant” value ([7]; line 121)?
**A.** 39%

**Q.** And the “Class I, number of plants (injury: 0-30%)” value (shortened to “Class I … (injury: 0-30%)”) ([7]; line 121)?
**A.** 90

**Q.** And the “Class II, number of plants (injury: 31-100%)” value (from here on “Class II … (injury: 31-100%)”) ([7]; line 121)?
**A.** 138

**Q.** What about the “% of tolerant plant” value ([7]; line 129) of the same molecule?
**A.** 30%

**Q.** What about the “Class I … (injury: 0-30%)” value ([7]; line 129) of the same molecule?
**A.** 47

**Q.** What about the “Class II … (injury: 31-100%)” value ([7]; line 129) of the same molecule?
**A.** 111

**Q.** What about the “% of tolerant plant” value ([7]; line 218) of the same molecule?
**A.** 64%

**Q.** What about the “Class I … (injury: 0-30%)” value ([7]; line 218) of the same molecule?
**A.** 100

**Q.** What about the “Class II … (injury: 31-100%)” value ([7]; line 218) of the same molecule?
**A.** 56

**Q.** And the “% of tolerant plant” value (wild type tobacco plants [8])?
**A.** 0%

**Q.** What about the “Class I … (injury: 0-30%)” value (wild type tobacco plants [8]) of the same molecule?
**A.** 0

**Q.** What about the “Class II … (injury: 31-100%)” value (wild type tobacco plants [8]) of the same molecule?
**A.** 12

**Q.** What does the source list for CS(=O)(=O)c1cc(C(F)(F)F)ccc1C(=O)c1cnoc1C1CC1 [Isoxaflutole, (5-cyclopropyl-4-isoxazolyl)[2-(methylsulfonyl)-4-(trifluoromethyl)phenyl]methanone]?
**A.** % injury ([9]; line 252, individual T1 plants): 30% and 70% and 95% and 98% (2×) and 99% (4×) and 100% (4×); % injury ([9]; line 258, individual T1 plants): 100%; % injury ([9]; line 327, individual T1 plants): 10% and 20% and 60% (2×) and 70% and 80% and 95% and 98% and 99% and 100% (6×); % injury ([10]; line 121, individual T1 plants): 0% (4×) and 1% and 2% and 20%; % injury ([10]; line 129, individual T1 plants): 0% (4×) and 1% (3×) and 2% (3×) and 5% and 10% (2×); % injury ([10]; line 218, individual T1 plants): 0% (9×) and 1% (3×) and 2% and 3% and 5%; % injury (wild type tobacco plants [11]): 99% (2×) and 100% (4×) and 98%; transgenic tested shoots showing normal greening [12]: 1%; appearance of shoots treated with isoxaflutole (wild-type soybean shoots): entirely bleached
